Data from article PMC10403075, “Short hydrocarbon stapled ApoC2-mimetic peptides activate lipoprotein lipase and lower plasma triglycerides in mice” (Frontiers in Cardiovascular Medicine, 2023).
Residues, ends and D or L forms follow the SMILES beside them.

How the values were obtained:
[1] = DMPC vesicle clearance (solubilization) assay; assay type: physicochemical; details: peptide 0-100 µM in 20 mM TRIS pH 8.2, DMPC vesicles 0.5 mg/ml in PBS, absorbance 660 nm, 1 h, 24°C
Method: Dimyristoyl Phosphatidyl Choline (DMPC) (Avanti 850345C) vesicles were made by sonication (0.5 mg/ml) in phosphate buffer saline (PBS). Peptides (0, 25, 50 and 100 µM) in 20 mM TRIS, pH 8.2 were added to DMPC vesicles (0.5 mg/ml) prepared by sonication in PBS and turbidity was monitored in a Victor^3 plate reader (Perkin Elmer, USA) by monitoring absorbance at 660 nm for 1 h at 24°C. Samples were shaken at 300 RPM. Absorbance over time was plotted and areas-under-the-curve (AOC) were calculated. PBS was used as a negative control sample and Triton X-100 at a final concentration of 1% (w/v) was used as positive control.

LPL from bovine milk [2] = target: T1, LPL from bovine milk (Bos taurus, UniProt P11151); assay: In vitro LPL activity assay (NEFA generation, ApoC2-deficient plasma substrate); assay type: biochemical; details: 0-2 µM peptide, bovine milk LPL, ApoC2-deficient plasma substrate, 37°C 1 h, NEFA read-out, triplicates
T1 construct: LPL from bovine milk (Sigma-Aldrich); purchased Sigma-Aldrich; host or cells: bovine milk (natural source)
T1 sequence (P11151 29-478): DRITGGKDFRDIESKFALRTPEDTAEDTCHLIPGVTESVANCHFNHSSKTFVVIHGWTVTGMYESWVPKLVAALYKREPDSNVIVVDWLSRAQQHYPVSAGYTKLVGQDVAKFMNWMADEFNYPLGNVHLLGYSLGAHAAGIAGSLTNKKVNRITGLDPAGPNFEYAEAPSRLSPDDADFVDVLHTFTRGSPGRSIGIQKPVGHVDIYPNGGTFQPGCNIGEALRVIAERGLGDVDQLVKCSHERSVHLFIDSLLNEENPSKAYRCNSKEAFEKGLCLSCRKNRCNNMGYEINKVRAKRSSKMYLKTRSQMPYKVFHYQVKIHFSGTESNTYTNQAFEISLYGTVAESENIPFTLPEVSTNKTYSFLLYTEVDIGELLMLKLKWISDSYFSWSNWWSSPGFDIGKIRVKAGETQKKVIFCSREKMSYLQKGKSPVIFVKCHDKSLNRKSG
Method: (§1) LPL activity was determined by measuring the generation of non-esterified fatty acids (NEFA). In a 96-well plate, 0–2 µM of an ApoC2 mimetic peptide, 0.83 nM of LPL from bovine milk (Sigma-Aldrich), ApoC2-deficient ethylenediaminetetraacetic acid (EDTA)-plasma (diluted with PBS to a final TG concentration of 0.67 mg/dl), 2 IU/ml heparin, 0.2% fatty acids free bovine serum albumin (BSA) (ICN Biomedicals), and PBS (Life Technologies) were combined in a final reaction volume of 50 μl. The reaction mixture was pre-incubated on ice for 30 min and incubated at 37°C for 1 h. NEFA were measured with a coupled enzyme reaction (Wako Diagnostics) in a Synergy H1 microplate reader (BioTek, USA).

trypsin = assay: Peptide proteolysis resistance, trypsin; assay type: in vitro ADME; details: peptide 0.1 mM, 10 ug/ml trypsin, 20 mM ammonium bicarbonate pH 8.2, 37°C, MALDI-TOF with internal standards, first time point 3 h, triplicates
Method: (§2) Peptides (0.1 mM) were incubated at 37°C in 20 mM ammonium bicarbonate buffer at pH 8.2, with 10 ug/ml trypsin or […] Proteinase K. To test resistance to Pepsin, peptides (0.1 mM) were incubated with Pepsin (3 mg/ml) in 0.02M acetate buffer (pH 2). The amount of intact peptide was monitored over time by Matrix-assisted laser desorption/ionization time-of-flight (MALDI-TOF) on a Bruker Autoflex III instrument (Bruker Optics, Inc., USA). Internal standards (Bombesin, ACTH (1–17), ACTH (18–39) and Insulin) were used to quantify the relative amount of peptide in each sample.

Pepsin = assay: Peptide proteolysis resistance, pepsin; assay type: in vitro ADME; details: peptide 0.1 mM, pepsin 3 mg/ml, 0.02M acetate buffer pH 2, 1 h, MALDI-TOF with internal standards, triplicates
Method: as §2

[3] = Circular dichroism spectroscopy; assay type: physicochemical; details: CD 190-250 nm
Method: Circular dichroism (CD) spectra were acquired on a Chirascan Q100 spectrometer. CD spectra were recorded in the190–250 nm range, using a 0.1 cm quartz cell and analyzed with Bettsele® on-line software ([24]).

LPL from bovine milk [4] = target: T1, LPL from bovine milk; assay: In vitro LPL activation assay after pepsin treatment; assay type: biochemical; details: 1 h pepsin at pH 2, then pH neutralised; compared with untreated peptide, area-under-the-curve, triplicates
Method: as §1, §2
Figure 4 Peptide proteolysis resistance. […]

Proteinase K = Proteinase K (Parengyodontium album, UniProt P06873); assay type: in vitro ADME; details: peptide 0.1 mM, 16 ug/kg Proteinase K, 20 mM ammonium bicarbonate pH 8.2, 37°C, MALDI-TOF with internal standards, first time point 3 h, triplicates
Sequence of Proteinase K (P06873 106-384): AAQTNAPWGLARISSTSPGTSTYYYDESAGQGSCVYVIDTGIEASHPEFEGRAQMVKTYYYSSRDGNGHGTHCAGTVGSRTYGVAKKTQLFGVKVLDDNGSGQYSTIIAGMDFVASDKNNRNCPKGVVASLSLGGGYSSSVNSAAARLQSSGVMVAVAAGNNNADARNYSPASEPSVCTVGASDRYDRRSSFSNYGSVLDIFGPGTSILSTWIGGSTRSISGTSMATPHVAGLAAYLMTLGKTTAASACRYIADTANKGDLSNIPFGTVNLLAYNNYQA
Method: as §2

Apoc2^h/h mice = assay: Plasma lipids in ApoC2-hypomorphic mice after peptide injection; assay type: in vivo, mouse; details: single IP 1 umole/kg, n = 5
Method: ApoC2–hypomorphic mice (Apoc2^h/h) ([25]) and human ApoC3-transgenic (hAPOC3-tg) mice ([26]) were fed a regular rodent chow diet (NIH-31 chow diet: Zeigler Brothers Inc.). Peptides dissolved in 20 mM TRIS (pH 8.2) or vehicle control were injected intraperitoneally or intravenously at the indicated concentrations. Blood samples were collected from the retro-orbital sinus with a heparinized capillary tube. Whole blood was centrifuged at 1,000 g for 20 min at 4°C to obtain plasma. All animal procedures were approved by the National Heart, Lung, and Blood Institute Animal Care and Use Committee (protocol #H-0050).

SMILES | DMPC vesicle solubilization [1] | in vitro LPL activation, dose response (result in words) (LPL from bovine milk [2]) | intact full-length peptide after trypsin incubation (trypsin) | intact full-length peptide after pepsin incubation (Pepsin) | alpha-helical secondary structure by CD ([3]; 0.1 cm cell, calculated from spectrum) [%] | ability to activate LPL after pepsin treatment (LPL from bovine milk [4]) | intact full-length peptide after Proteinase K incubation (Proteinase K) | plasma triglycerides, 1-hour time point (Apoc2^h/h mice; 1 h, compared with D6PV) | plasma triglycerides, 3-hour time point (Apoc2^h/h mice; 3 h) | secondary structure by CD (result in words) [3]
CCCC[C@H](NC(=O)[C@H](C)NC(C)=O)C(=O)N[C@]1(C)CCCCCCC=CCCCC2(CCCC=CCCCCCC[C@@](C)(C(=O)N[C@@H](CCCCN)C(=O)N(C)CC(=O)N[C@H](CCC(=O)O)C(=O)N[C@H](CCC(=O)O)C(=O)O)NC(=O)[C@H](C(C)C)NC(=O)[C@H](CO)NC(=O)[C@H](CC(C)C)NC(=O)[C@H](C(C)C)NC(=O)[C@H](CCC(N)=O)NC(=O)[C@H](CC(=O)O)NC2=O)NC(=O)[C@H](Cc2ccccc2)NC(=O)[C@H]([C@@H](C)CC)NC(=O)CNC(=O)[C@H]([C@@H](C)O)NC(=O)[C@H](Cc2ccc(O)cc2)NC(=O)[C@H]([C@@H](C)O)NC1=O (stereo partly drawn) [SP2] | most effective in solubilizing DMPC vesicles | slightly more potent than SP1 | resistant to both proteases | resistant to proteolysis | 46 | fully active | resistant to both proteases | – | – | –
CCCCCCCC(=O)NC(C)(C)C(=O)N[C@@H](CCCC)C(=O)N[C@]1(C)CCCCCCC=CCCCC2(CCCC=CCCCCCC[C@@](C)(C(=O)N[C@@H](CCCCN)C(=O)N(C)CC(=O)N[C@H](CCC(=O)O)C(=O)N[C@H](CCC(=O)O)C(=O)O)NC(=O)[C@H](C(C)C)NC(=O)[C@H](CO)NC(=O)[C@H](CC(C)C)NC(=O)[C@H](C(C)C)NC(=O)[C@H](CCC(N)=O)NC(=O)[C@H](CC(=O)O)NC2=O)NC(=O)[C@H](Cc2ccccc2)NC(=O)[C@H]([C@@H](C)CC)NC(=O)CNC(=O)[C@H]([C@@H](C)O)NC(=O)[C@H](Cc2ccc(O)cc2)NC(=O)[C@H]([C@@H](C)O)NC1=O (stereo partly drawn) [SP2a] | – | more potent than SP1 and D6PV | highly resistant to proteolysis | highly resistant to proteolysis | – | – | highly resistant to proteolysis | possibly less effective | lowered plasma triglycerides like D6PV | highly helical
CC[C@H](C)[C@H](NC(=O)CNC(=O)[C@@H](NC(=O)[C@H](Cc1ccc(O)cc1)NC(=O)[C@@H](NC(=O)[C@H](CO)NC(=O)[C@H](CCSC)NC(=O)[C@H](C)N)[C@@H](C)O)[C@@H](C)O)C(=O)N[C@@H](Cc1ccccc1)C(=O)N[C@H](C(=O)N[C@@H](CC(=O)O)C(=O)N[C@@H](CCC(N)=O)C(=O)N[C@H](C(=O)N[C@@H](CC(C)C)C(=O)N[C@@H](CO)C(=O)N[C@H](C(=O)N[C@@H](CC(C)C)C(=O)N[C@@H](CCCCN)C(=O)NCC(=O)N[C@@H](CCC(=O)O)C(=O)N[C@@H](CCC(=O)O)C(=O)O)C(C)C)C(C)C)[C@@H](C)O [P8, reference compound] (H-AMSTYTGIFTDQVLSVLKGEE-OH) | inactive | – | – | – | – | – | – | – | – | –
